Reference: ChEMBL document CHEMBL4354878, “Structure-Based Bioisosterism Yields HIV-1 NNRTIs with Improved Drug-Resistance Profiles and Favorable Pharmacokinetic Properties” (J Med Chem, 2020)
pEC50, pIC50: −log10 of the molar value. Converted amounts (≈) assume the structure as drawn.

Experiments:
[1] = target: Human immunodeficiency virus type 1 reverse transcriptase (Human immunodeficiency virus 1, UniProt Q72547, Y188L); assay: Inhibition of HIV1 RT Y188L mutant in presence of reconstituted template and viral nucleotides [digoxigenin (DIG)-dUTP, biotin-dUTP and dTTP] incubated for 1 hr by ELISA method
[2] = tested on: Human immunodeficiency virus 1; assay: Antiviral activity against HIV1 3B infected in human MT4 cells grown under 30 passages in presence of 4-[[4-[[4-[4-[2-cyanovinyl]-2,6-dimethylphenoxy]thieno[3,2-d]pyrimidin-2-yl]amino]-1-piperidyl]methyl]benzenesulfonamide assessed as protection against virus-induced cytopathic effect incubated for 5 days by MTT assay; assay type: functional, organism-based; conditions: Human immunodeficiency virus 1, 3B, MT4, 120 h
[3] = target: Human immunodeficiency virus type 1 reverse transcriptase (Human immunodeficiency virus 1, UniProt Q72547, K103N/Y181C); assay: Inhibition of HIV1 RT K103N/Y181C mutant in presence of reconstituted template and viral nucleotides [digoxigenin (DIG)-dUTP, biotin-dUTP and dTTP] incubated for 1 hr by ELISA method
[4] = target: Human immunodeficiency virus type 1 reverse transcriptase (Human immunodeficiency virus 1, UniProt Q72547, K103N); assay: Inhibition of HIV1 RT K103N mutant in presence of reconstituted template and viral nucleotides [digoxigenin (DIG)-dUTP, biotin-dUTP and dTTP] incubated for 1 hr by ELISA method
[5] = target: Human immunodeficiency virus type 1 reverse transcriptase (Human immunodeficiency virus 1, UniProt Q72547, E138K); assay: Inhibition of HIV1 RT E138K mutant in presence of reconstituted template and viral nucleotides [digoxigenin (DIG)-dUTP, biotin-dUTP and dTTP] incubated for 1 hr by ELISA method
[6] = target: Human immunodeficiency virus type 1 reverse transcriptase (Human immunodeficiency virus 1, UniProt Q72547, L100I); assay: Inhibition of HIV1 RT L100I mutant in presence of reconstituted template and viral nucleotides [digoxigenin (DIG)-dUTP, biotin-dUTP and dTTP] incubated for 1 hr by ELISA method
[7] = tested on: Human immunodeficiency virus 1; assay: Antiviral activity against HIV1 3B infected in human MT4 cells grown under 30 passages in presence of 4-[[4-[[4-(4-cyano-2,6-dimethylphenoxy)thieno[3,2-d]pyrimidin-2-yl]amino]-1-piperidyl]methyl]benzenesulfonamide assessed as protection against virus-induced cytopathic effect incubated for 5 days by MTT assay; assay type: functional, organism-based; conditions: Human immunodeficiency virus 1, 3B, MT4, 120 h
[8] = target: Human immunodeficiency virus type 1 reverse transcriptase (Human immunodeficiency virus 1, UniProt Q72547, Y181C); assay: Inhibition of HIV1 RT Y181C mutant in presence of reconstituted template and viral nucleotides [digoxigenin (DIG)-dUTP, biotin-dUTP and dTTP] incubated for 1 hr by ELISA method
[9] = target: Human immunodeficiency virus type 1 reverse transcriptase (Human immunodeficiency virus 1, UniProt Q72547); assay: Inhibition of HIV1 RT in presence of reconstituted template and viral nucleotides [digoxigenin (DIG)-dUTP, biotin-dUTP and dTTP] incubated for 1 hr by ELISA method
[10] = tested on: Human immunodeficiency virus 1; assay: Antiviral activity against HIV1 3B infected in human MT4 cells grown under 30 passages in absence of test compound assessed as protection against virus-induced cytopathic effect incubated for 5 days by MTT assay; assay type: functional, organism-based; conditions: Human immunodeficiency virus 1, 3B, MT4, 120 h
[11] = tested on: Human immunodeficiency virus 1; assay: Antiviral activity against HIV1 3B infected in human MT4 cells grown under 30 passages in presence of (E)-4-((4-((4-(4-(2-Cyanovinyl)-2,6-dimethylphenoxy)thieno[2,3- d]pyrimidin-2-yl)amino)piperidin-1-yl)methyl)benzenesulfonamide assessed as protection against virus-induced cytopathic effect incubated for 5 days by MTT assay; assay type: functional, organism-based; conditions: Human immunodeficiency virus 1, 3B, MT4, 120 h
[12] = tested on: Human immunodeficiency virus 1; assay: Antiviral activity against HIV1 expressing RT E138K mutant infected in human MT4 cells assessed as protection against virus-induced cytopathic effect incubated for 5 days by MTT assay; assay type: functional, organism-based; conditions: Human immunodeficiency virus 1, MT4, 120 h
MT4 = assay: Cytotoxicity against human MT4 cells assessed as reduction in cell viability incubated for 5 days by MTT assay; assay type: functional; conditions: MT4, 120 h
[13] = tested on: Human immunodeficiency virus 1; assay: Antiviral activity against HIV1 expressing RT Y181C mutant infected in human MT4 cells assessed as protection against virus-induced cytopathic effect incubated for 5 days by MTT assay; assay type: functional, organism-based; conditions: Human immunodeficiency virus 1, MT4, 120 h
[14] = Selectivity index, ratio of CC50 for human MT4 cells to EC50 for antiviral activity against HIV1 RES056 infected in human MT4 cells
[15] = tested on: Human immunodeficiency virus 1; assay: Antiviral activity against HIV1 RES056 infected in human MT4 cells assessed as protection against virus-induced cytopathic effect incubated for 5 days by MTT assay; assay type: functional, organism-based; conditions: Human immunodeficiency virus 1, RES056, MT4, 120 h
[16] = Selectivity index, ratio of CC50 for human MT4 cells to EC50 for antiviral activity against HIV1 3B infected in human MT4 cells
[17] = tested on: Human immunodeficiency virus 1; assay: Antiviral activity against HIV1 expressing RT K103N mutant infected in human MT4 cells assessed as protection against virus-induced cytopathic effect incubated for 5 days by MTT assay; assay type: functional, organism-based; conditions: Human immunodeficiency virus 1, MT4, 120 h
[18] = tested on: Human immunodeficiency virus 1; assay: Antiviral activity against HIV1 expressing RT Y188L mutant infected in human MT4 cells assessed as protection against virus-induced cytopathic effect incubated for 5 days by MTT assay; assay type: functional, organism-based; conditions: Human immunodeficiency virus 1, MT4, 120 h
[19] = tested on: Human immunodeficiency virus 1; assay type: functional, organism-based; conditions: Human immunodeficiency virus 1, MT4, 120 h
[20] = tested on: Human immunodeficiency virus 1; assay: Antiviral activity against HIV1 3B infected in human MT4 cells assessed as protection against virus-induced cytopathic effect incubated for 5 days by MTT assay; assay type: functional, organism-based; conditions: Human immunodeficiency virus 1, 3B, MT4, 120 h
[21] = tested on: Human immunodeficiency virus 1; assay: Antiviral activity against HIV1 expressing RT L100I mutant infected in human MT4 cells assessed as protection against virus-induced cytopathic effect incubated for 5 days by MTT assay; assay type: functional, organism-based; conditions: Human immunodeficiency virus 1, MT4, 120 h
[22] = Solubility of the compound in pH 7.0 buffer by HPLC analysis
[23] = Solubility of the compound in pH 7.4 buffer by HPLC analysis
[24] = Aqueous solubility of the compound in pH 7 buffer; assay type: physicochemical
[25] = Solubility of the compound in pH 2.0 buffer by HPLC analysis
[26] = tested on: Human immunodeficiency virus 1; assay: Resistance index, ratio of EC50 for antiviral activity against HIV1 3B infected in human MT4 cells grown under 30 passages in presence of (E)-4-((4-((4-(4-(2-Cyanovinyl)-2,6-dimethylphenoxy)thieno[2,3- d]pyrimidin-2-yl)amino)piperidin-1-yl)methyl)benzenesulfonamide to EC50 for antiviral activity against HIV1 3B infected in human MT4 cells; assay type: functional
[27] = tested on: Human immunodeficiency virus 1; assay: Resistance index, ratio of EC50 for antiviral activity against HIV1 3B infected in human MT4 cells grown under 30 passages in presence of 4-[[4-[[4-(4-cyano-2,6-dimethylphenoxy)thieno[3,2-d]pyrimidin-2-yl]amino]-1-piperidyl]methyl]benzenesulfonamide to EC50 for antiviral activity against HIV1 3B infected in human MT4 cells; assay type: functional
[28] = tested on: Human immunodeficiency virus 1; assay: Resistance index, ratio of EC50 for antiviral activity against HIV1 3B infected in human MT4 cells grown under 30 passages in presence of 4-[[4-[[4-[4-[2-cyanovinyl]-2,6-dimethylphenoxy]thieno[3,2-d]pyrimidin-2-yl]amino]-1-piperidyl]methyl]benzenesulfonamide to EC50 for antiviral activity against HIV1 3B infected in human MT4 cells; assay type: functional

Compound	pEC50 [2]	pEC50 [7]	pEC50 [10]	pEC50 [11]	pEC50 [12]	CC50 (MT4)	pEC50 [13]	selectivity ratio [14]	pEC50 [15]	selectivity ratio [16]	pEC50 [17]	pEC50 [18]	pEC50 [19]	pEC50 [20]	pEC50 [21]	other results
Cc1cc(C#N)cc(C)c1Oc1nc(NC2CCN(Cc3ccc(S(N)(=O)=O)cc3)CC2)nc2ccsc12	< 4.44	< 4.44	8.96	< 4.44	–	–	–	–	–	–	–	–	–	–	–	pIC50 [1]: 6.67; pIC50 [3]: 7.15; pIC50 [4]: 6.79; pIC50 [5]: 6.70; pIC50 [6]: 7.04; pIC50 [8]: 6.90; pIC50 [9]: 7.12
Cc1cc(/C=C/C#N)cc(C)c1Oc1nc(NC2CCN(Cc3ccc(S(N)(=O)=O)cc3)CC2)nc2ccsc12	5.91	6.07	–	< 5.26	–	–	–	–	–	–	–	–	–	–	–	pIC50 [1]: 6.52; pIC50 [3]: 6.97; pIC50 [4]: 6.72; pIC50 [5]: 6.46; pIC50 [6]: 7.00; pIC50 [8]: 6.83; pIC50 [9]: 7.00
Cc1cc(/C=C/C#N)cc(C)c1Oc1nc(NC2CCN(Cc3ccc(F)cc3)CC2)nc2sccc12	–	–	–	–	6.91	5840 nM	7.44	39	6.82	279	7.65	6.82	6.90	7.71	7.52	–
Cc1cc(/C=C/C#N)cc(C)c1Oc1nc(NC2CCN(Cc3ccc(C(N)=O)cc3)CC2)nc2sccc12	–	–	–	–	8.03	3540 nM	7.89	53	7.17	597	8.30	7.57	7.82	8.23	8.21	–
CCOC(=O)c1ccc(CN2CCC(Nc3nc(Oc4c(C)cc(/C=C/C#N)cc4C)c4ccsc4n3)CC2)cc1	–	–	–	–	7.48	111000 nM	7.51	728	6.82	10500	7.92	6.92	7.49	7.97	7.71	–
Cc1cc(/C=C/C#N)cc(C)c1Oc1nc(NC2CCN(Cc3ccc(C#N)cc3)CC2)nc2sccc12	–	–	–	–	7.44	7740 nM	7.48	56	6.86	625	7.76	6.93	7.49	7.91	7.67	–
Cc1cc(/C=C/C#N)cc(C)c1Oc1nc(NC2CCN(Cc3cccc(C(N)=O)c3)CC2)nc2sccc12	–	–	–	–	7.74	3950 nM	7.75	64	7.21	689	8.26	7.40	7.91	8.24	8.24	–
Cc1cc(C#N)cc(C)c1Oc1nc(Nc2ccc(C#N)cc2)nc(N)c1Br [ETRAVIRINE]	6.43	6.28	–	5.91	–	–	7.80	–	–	–	8.63	7.69	–	–	8.27	solubility [22]: < 1 µg/mL; solubility [23]: < 1 µg/mL; solubility [24]: < 1 µg/mL; solubility [25]: 127 µg/mL (≈ 292 µM)
Cc1ccnc2c1NC(=O)c1cccnc1N2C1CC1 [NEVIRAPINE]	< 5.02	< 5.02	7.06	5.42	–	–	–	–	–	–	–	–	–	–	–	Ratio EC50 [26]: 43; Ratio EC50 [27]: >108; Ratio EC50 [28]: >108
Cc1cc(/C=C/C#N)cc(C)c1Nc1ccnc(Nc2ccc(C#N)cc2)n1 [RILPIVIRINE]	7.22	7.05	–	< 5.41	–	–	–	–	–	–	–	–	–	–	–	solubility [22]: < 1 µg/mL; solubility [23]: < 1 µg/mL; solubility [25]: 103 µg/mL (≈ 281 µM)
C[C@H](Cn1cnc2c(N)ncnc21)OCP(=O)(O)O [TENOFOVIR ANHYDROUS]	5.48	5.42	5.38	5.66	–	–	–	–	–	–	–	–	–	–	–	Ratio EC50 [26]: 0.5; Ratio EC50 [27]: 0.9; Ratio EC50 [28]: 0.8
Cc1cn([C@H]2C[C@H](N=[N+]=[N-])[C@@H](CO)O2)c(=O)[nH]c1=O [ZIDOVUDINE]	8.31	8.29	7.90	9.00	–	–	–	–	–	–	–	–	–	–	–	Ratio EC50 [26]: 0.1; Ratio EC50 [27]: 0.4; Ratio EC50 [28]: 0.4
